≈ marks a conversion by molar mass, not a printed value.
Assay: Saturation solubility test of propranolol in various solvents at 37° C.
Assay type: physicochemical

With CC(C)NCC(O)COc1cccc2ccccc12 (centres unmarked) [Propranolol, propranolol] the “Mean concentration (mg/ml) ± SD” value (propranolol in Kolliphor EL, 37° C., n = 3) was 1.32 ± 0.00 mg/mL, the “Mean concentration (mg/ml) ± SD” value (propranolol in Tween 20, 37° C., n = 3) was 1.86 ± 0.00 mg/mL and the “Mean concentration (mg/ml) ± SD” value (propranolol in Tween 80, 37° C., n = 3) was 1.89 ± 0.01 mg/mL. For the same compound, the solubility thermodynamic (propranolol in Water, 37° C., n = 3, read-out: Mean concentration (mg/ml) ± SD) was 29.03 ± 0.12 mg/mL (≈ 112 mM), the Inference (solubility of propranolol in Kolliphor EL) was “Slightly soluble” and the Inference (solubility of propranolol in Tween 20) was “Slightly soluble”. For the same compound, the Inference (solubility of propranolol in Tween 80) was “Slightly soluble” and the Inference (solubility of propranolol in Water) was “Sparingly soluble”.

Reference: patent US11833251B2, “Pharmaceutical methods and compositions” (THE UNIVERSITY OF SUSSEX, priority 2018, dated 2023)
